Assay results from patent publication US10125118B2, “Heteroaryl compounds and their use as therapeutic drugs” (Dong-A Socio Holdings Co., Ltd., priority 2015, dated 2018).

These compounds were tested against human c-MER catalytic domain (Homo sapiens (Human), UniProt Q12866) (assay: LanthaScreen TR-FRET kinase assay, c-MER). Details: read-out: Mer TK inhibition (IC50); Biochemical IC50, TR-FRET, 10 uM ATP.
Sequence of human c-MER catalytic domain (Q12866 587-858): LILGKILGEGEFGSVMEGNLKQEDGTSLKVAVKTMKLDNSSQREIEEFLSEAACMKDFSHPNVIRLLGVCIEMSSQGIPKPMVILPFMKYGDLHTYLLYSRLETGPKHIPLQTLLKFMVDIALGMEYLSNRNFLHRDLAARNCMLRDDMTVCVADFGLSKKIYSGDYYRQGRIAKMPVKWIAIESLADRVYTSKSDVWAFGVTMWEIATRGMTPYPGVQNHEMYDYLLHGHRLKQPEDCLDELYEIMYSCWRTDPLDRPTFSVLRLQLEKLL
`CNC(=O)[C@@H](NC(=O)c1cc(-c2cnn(C)c2)cnc1N)[C@@H](C)OCc1ccccc1` [Example 122, 2-amino-N-((2S,3R)-3-(benzyloxy)-1-(methylamino)-1-oxobutan-2-yl)-5-(1-methyl-1H-pyrazol-4-yl)nicotinamide] was tested, and the IC50 was over 1 µM.
In the case of `CCCNC(=O)[C@@H](NC(=O)c1cc(-c2cnn(C)c2)cnc1N)[C@@H](C)OCc1ccccc1` [Example 123, 2-amino-N-((2S,3R)-3-(benzyloxy)-1-oxo-1-(propylamino)butan-2-yl)-5-(1-methyl-1H-pyrazol-4-yl)nicotinamide], the IC50 is reported as over 1 µM.
With `C[C@@H](OCc1ccccc1)[C@H](NC(=O)c1cc(-c2cnn(C)c2)cnc1N)C(=O)NC1CCCC1` [Example 124, 2-amino-N-((2S,3R)-3-(benzyloxy)-1-(cyclopentylamino)-1-oxobutan-2-yl)-5-(1-methyl-1H-pyrazol-4-yl)nicotinamide] the IC50 was over 1 µM.
`C[C@@H](OCc1ccccc1)[C@H](NC(=O)c1cc(-c2cnn(C)c2)cnc1N)C(=O)N1CCCC1` [Example 125, 2-amino-N-((2S,3R)-3-(benzyloxy)-1-oxo-1-(pyrrolidin-1-yl)butan-2-yl)-5-(1-methyl-1H-pyrazol-4-yl)nicotinamide] gave an IC50 of over 1 µM.
For `C[C@H](NC(=O)c1cc(-c2cnn(C)c2)cnc1N)C(=O)OCc1ccccc1` [Example 126, benzyl (2-amino-5-(1-methyl-1H-pyrazol-4-yl)nicotinoyl)-L-alaninate], the IC50 was over 1 µM.
`Cn1cc(-c2cnc(N)c(C(=O)N[C@@H](CO)C(=O)OCc3ccccc3)c2)cn1` [Example 128, benzyl (2-amino-5-(1-methyl-1H-pyrazol-4-yl)nicotinoyl)-L-serinate] gave an IC50 of over 1 µM.
`Cn1cc(-c2cnc(N)c(C(=O)N[C@H]3CCC[C@@H]3OCc3ccccc3)n2)cn1` [Example 129, 3-amino-N-((1S,2S)-2-(benzyloxy)cyclopentyl)-6-(1-methyl-1H-pyrazol-4-yl)pyrazine-2-carboxamide] showed an IC50 of over 1 µM.
Work on `Cn1cc(-c2cnc(N)c(C(=O)N[C@H]3CCCc4ccccc43)n2)cn1` [Example 131, (S)-3-amino-6-(1-methyl-1H-pyrazol-4-yl)-N-(1,2,3,4-tetrahydronaphthalen-1-yl)pyrazine-2-carboxamide] yielded an IC50 of over 1 µM.
`Cc1c(N)cccc1-c1ccc(CO[C@H]2CCC[C@@H]2NC(=O)c2cc(-c3cnn(C)c3)cnc2N)cc1` [Example 139, 2-amino-N-((1S,2S)-2-((3′-amino-2′-methyl-[1,1′-biphenyl]-4-yl)methoxy)cyclopentyl)-5-(1-methyl-1H-pyrazol-4-yl)nicotinamide] was tested, and the IC50 was over 1 µM.
`Cn1cc(-c2cnc(N)c(C(=O)N[C@H]3CCC[C@@H]3OCc3ccc(-c4cccc(CN)c4)cc3)c2)cn1` [Example 143] was tested, and the IC50 was over 1 µM.
Work on `CN1CCN(Cc2ccc(-c3ccc(CO[C@H]4CCCC[C@@H]4NC(=O)c4cc(-c5cnn(C)c5)cnc4N)cc3)cc2)CC1` [Example 166, 2-amino-5-(1-methyl-1H-pyrazol-4-yl)-N-((1S,2S)-2-((4′-((4-methylpiperazin-1-yl)methyl)-[1,1′-biphenyl]-4-yl)methoxy)cyclohexyl)nicotinamide] yielded an IC50 of over 1 µM.
`CN1CCN(C(C)(C)c2ccc(-c3ccc(CO[C@H]4CCC[C@@H]4NC(=O)c4cccnc4N)cc3)cc2)CC1` [Example 167, 2-amino-N-((1S,2S)-2-((4′-(2-(4-methylpiperazin-1-yl)propan-2-yl)-[1,1′-biphenyl]-4-yl)methoxy)cyclopentyl)nicotinamide] gave an IC50 of under 0.01 µM.
Compound `Cn1cc(-c2cnc(N)c(C(=O)N[C@H]3CCC[C@@H]3OCc3cccc(-c4cccc(O)c4)c3)c2)cn1` [Example 169, 2-amino-N-((1S,2S)-2-((3′-hydroxy-[1,1′-biphenyl]-3-yl)-methoxy)cyclopentyl)-5-(1-methyl-1H-pyrazol-4-yl)nicotinamide] has an IC50 of over 1 µM.
For `Cn1cc(-c2cnc(N)c(C(=O)N[C@H]3CCC[C@@H]3OCc3cccc(-c4cccc(N)c4)c3)c2)cn1` [Example 170, 2-amino-N-((1S,2S)-2-((3′-amino-[1,1′-biphenyl]-3-yl)methoxy)-cyclopentyl)-5-(1-methyl-1H-pyrazol-4-yl)nicotinamide], the IC50 was over 1 µM.
With `Cn1cc(-c2cnc(N)c(C(=O)N[C@H]3CCC[C@@H]3OCc3cccc(-c4cccc(CO)c4)c3)c2)cn1` [Example 171, 2-amino-N-((1S,2S)-2-((3′-(hydroxymethyl)-[1,1′-biphenyl]-3-yl)-methoxy)cyclopentyl)-5-(1-methyl-1H-pyrazol-4-yl)nicotinamide] the IC50 was over 1 µM.
For `CN1CCN(Cc2ccc(-c3ccc(CO[C@H]4CCC[C@@H]4NC(=O)c4cc(-c5cnn(C)c5)cnc4N)cc3)nc2)CC1` [Example 204, 2-amino-5-(1-methyl-1H-pyrazol-4-yl)-N-((1S,2S)-2-((4-(5-((4-methylpiperazin-1-yl)methyl)pyridin-2-yl)benzyl)oxy)cyclopentyl)nicotinamide], the IC50 was under 0.01 µM.
Work on `CN1CCN(Cc2ccc(-c3ccc(CO[C@H]4CCC[C@@H]4NC(=O)c4cccnc4N)cc3)cc2C(F)(F)F)CC1` [Example 207, 2-amino-N-((1S,2S)-2-((4′-((4-methylpiperazin-1-yl)methyl)-3′-(trifluoromethyl)-[1,1′-biphenyl]-4-yl)methoxy)cyclopentyl)nicotinamide] yielded an IC50 of under 0.01 µM.
With `CC(c1ccc(-c2ccc(CO[C@H]3CCC[C@@H]3NC(=O)c3cc(Cl)cnc3N)cc2)cc1)N1CCN(C)CC1` (some centres unmarked) [Example 231] the IC50 was under 0.01 µM.
Compound `CN(C)CCCc1ccc(CO[C@H]2CCC[C@@H]2NC(=O)c2cc(-c3cnn(C)c3)cnc2N)cc1` [Example 244, 2-amino-N-((1S,2S)-2-((4-(3-(dimethylamino)propyl)benzyl)oxy)-cyclopentyl)-5-(1-methyl-1H-pyrazol-4-yl)nicotinamide] has an IC50 of over 1 µM.
With `CN(C)CCOc1ccc(-c2ccc(CO[C@H]3CCC[C@@H]3NC(=O)c3cc(-c4cnn(C)c4)cnc3N)cc2)cc1` [Example 245, 2-amino-N-((1S,2S)-2-((4′-(2-(dimethylamino)ethoxy)-[1,1′-biphenyl]-4-yl)methoxy)cyclopentyl)-5-(1-methyl-M-pyrazol-4-yl)nicotinamide] the IC50 was under 0.01 µM.
Compound `Cn1cc(-c2cnc(N)c(C(=O)N[C@H]3CCC[C@@H]3OCc3ccccc3)c2)c(CNCCO)n1` [Example 262, 2-amino-N-((1S,2S)-2-(benzyloxy)cyclopentyl)-5-(3-(((2-hydroxyethyl)amino)methyl)-1-methyl-1H-pyrazol-4-yl)nicotinamide] has an IC50 of over 1 µM.
Work on `Cn1cc(-c2cnc(N)c(C(=O)N[C@H]3CCC[C@@H]3OCc3ccccc3)c2)c(CN2CCCC(O)C2)n1` (stereo partly drawn) [Example 263, 2-amino-N-((1S,2S)-2-(benzyloxy)cyclopentyl)-5-(3-((3-hydroxypiperidin-1-yl)methyl)-1-methyl-1H-pyrazol-4-yl)nicotinamide] yielded an IC50 of over 1 µM.
Work on `N#Cc1ccc(-c2cnc(N)c(C(=O)N[C@H]3CCC[C@@H]3OCc3ccccc3)c2)cc1` [Example 264, 2-amino-N-((1S,2S)-2-(benzyloxy)cyclopentyl)-5-(4-cyanophenyl)-nicotinamide] yielded an IC50 of over 1 µM.
`Nc1ncc(-c2ccc(Oc3ccccc3)cc2)cc1C(=O)N[C@H]1CCC[C@@H]1OCc1ccccc1` [Example 267, 2-amino-N-((1S,2S)-2-(benzyloxy)cyclopentyl)-5-(4-phenoxyphenyl)nicotinamide] showed an IC50 of over 1 µM.
`Cc1ccc(CO[C@H]2CCC[C@@H]2NC(=O)c2cc(-c3ccc(CNCC4CCN(C)CC4)cc3)cnc2N)cc1C` [Example 329, 2-amino-N-((1S,2S)-2-((3,4-dimethylbenzyl)oxy)cyclopentyl)-5-(4-((((1-methylpiperidin-4-yl)methyl)amino)methyl)phenyl)nicotinamide] gave an IC50 of under 0.01 µM.
For `Cc1ccc(CO[C@H]2CCC[C@@H]2NC(=O)c2cc(-c3ccc(C(=O)N4CCC(N5CCCC5)CC4)c(C)c3)cnc2N)cc1C` [Example 330], the IC50 was under 0.01 µM.
Work on `Nc1ncc(-c2cnn(C3CCNCC3)c2)nc1C(=O)N[C@H]1CCCc2ccccc21` [Example 362, (S)-3-amino-6-(1-(piperidin-4-yl)-1H-pyrazol-4-yl)-N-(1,2,3,4-tetrahydronaphthalen-1-yl)pyrazine-2-carboxamide] yielded an IC50 of over 1 µM.
Work on `CN1CCN(Cc2ccc(-c3ccc(CO[C@H]4CCC[C@@H]4NC(=O)c4cc(C5=CCCCC5)cnc4N)cc3)cc2)CC1` [Example 382, 2-amino-5-(cyclohex-1-en-1-yl)-N-((1S,2S)-2-((4′-((4-methylpiperazin-1-yl)methyl)-[1,1′-biphenyl]-4-yl)methoxy)cyclopentyl)nicotinamide] yielded an IC50 of under 0.01 µM.
`CN1CCN(Cc2ccc(-c3ccc(CO[C@H]4COCC4NC(=O)c4cc(-c5cnn(C)c5)cnc4N)cc3)cc2)CC1` (some centres unmarked) [Example 454] was tested, and the IC50 was under 0.01 µM.
Work on `CN1CCN(Cc2ccc(Nc3ccc(C(=O)N[C@H]4CCC[C@@H]4OCc4ccccc4)c(N)n3)cc2)CC1` [Example 456, 2-amino-N-((1S,2S)-2-(benzyloxy)cyclopentyl)-6-((4-((4-methylpiperazin-1-yl)methyl)phenyl)amino)nicotinamide] yielded an IC50 of over 1 µM.
`Nc1nc(Nc2ccccc2)ccc1C(=O)N[C@H]1CCC[C@@H]1OCc1ccccc1` [Example 457, 2-amino-N-((1S,2S)-2-(benzyloxy)cyclopentyl)-6-(phenylamino)-nicotinamide] showed an IC50 of over 1 µM.
Compound `CN1CCN(c2ccc(Nc3ccc(C(=O)N[C@H]4CCC[C@@H]4OCc4ccccc4)c(N)n3)cc2)CC1` [Example 458, 2-amino-N-((1S,2S)-2-(benzyloxy)cyclopentyl)-6-((4-(4-methylpiperazin-1-yl)phenyl)amino)nicotinamide] has an IC50 of over 1 µM.
